#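 In this assay, cells in 96-well plates receive the compound at five concentrations for 48 hours. Endpoints are linearly interpolated between the surrounding concentrations. GI50 = concentration required for 50% inhibition of growth. TGI: total growth inhibition.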
# Experiments:
# Assay in all cases: inhibition of tumour cell growth, NCI panel, 48 h
# MOLT-4 leukemia = tested on: MOLT-4 leukemia
# SF-539 CNS = tested on: SF-539 CNS
# NCI-H460 lung = tested on: NCI-H460 lung
# HCT-116 colon = tested on: HCT-116 colon
# IGROV1 ovarian = tested on: IGROV1 ovarian
# LOX IMVI melanoma = tested on: LOX IMVI melanoma
# PC-3 prostate = tested on: PC-3 prostate
# EKVX NSCLC = tested on: EKVX NSCLC
# BT-549 breast = tested on: BT-549 breast
# RPMI-8226 leukemia = tested on: RPMI-8226 leukemia
# DU-145 prostate = tested on: DU-145 prostate
# SN12C renal = tested on: SN12C renal
# MDA-MB-435 = tested on: MDA-MB-435
# MDA-MB-231 breast = tested on: MDA-MB-231 breast
# COLO 205 colon = tested on: COLO 205 colon
# NCI-H226 lung = tested on: NCI-H226 lung
# MALME-3M melanoma = tested on: MALME-3M melanoma
# HS 578T breast = tested on: HS 578T breast
# A498 renal = tested on: A498 renal
# MDA-MB-468 breast = tested on: MDA-MB-468 breast
# SK-OV-3 ovarian = tested on: SK-OV-3 ovarian
# NCI-H522 lung = tested on: NCI-H522 lung
# OVCAR-3 ovarian = tested on: OVCAR-3 ovarian
# MCF7 breast = tested on: MCF7 breast
# SNB-19 CNS = tested on: SNB-19 CNS
# ACHN renal = tested on: ACHN renal
# RXF 393 renal = tested on: RXF 393 renal
# SK-MEL-5 melanoma = tested on: SK-MEL-5 melanoma
# 786-0 renal = tested on: 786-0 renal
# HCC-2998 colon = tested on: HCC-2998 colon
# SF-295 CNS = tested on: SF-295 CNS
# OVCAR-4 ovarian = tested on: OVCAR-4 ovarian
# SK-MEL-2 melanoma = tested on: SK-MEL-2 melanoma
# NCI/ADR-RES ovarian = tested on: NCI/ADR-RES ovarian
# HL-60(TB) leukemia = tested on: HL-60(TB) leukemia
# K-562 leukemia = tested on: K-562 leukemia
# HCT-15 colon = tested on: HCT-15 colon
# OVCAR-5 ovarian = tested on: OVCAR-5 ovarian
# UO-31 renal = tested on: UO-31 renal
# CCRF-CEM leukemia = tested on: CCRF-CEM leukemia
# UACC-62 melanoma = tested on: UACC-62 melanoma
# M14 melanoma = tested on: M14 melanoma
# SK-MEL-28 melanoma = tested on: SK-MEL-28 melanoma
# SNB-75 CNS = tested on: SNB-75 CNS
# NCI-H23 lung = tested on: NCI-H23 lung
# TK-10 renal = tested on: TK-10 renal
# HOP-92 NSCLC = tested on: HOP-92 NSCLC
# T-47D breast = tested on: T-47D breast
# U251 CNS = tested on: U251 CNS
# A549 NSCLC = tested on: A549 NSCLC
# CAKI-1 renal = tested on: CAKI-1 renal
# OVCAR-8 ovarian = tested on: OVCAR-8 ovarian
# SF-268 CNS = tested on: SF-268 CNS
# HT29 colon = tested on: HT29 colon
# SW-620 colon = tested on: SW-620 colon
# UACC-257 melanoma = tested on: UACC-257 melanoma
# HOP-62 NSCLC = tested on: HOP-62 NSCLC
# KM12 colon = tested on: KM12 colon
smiles,measurement,setting,value
FC(F)(F)CN1CCN(CCn2c(C(F)(F)F)cc3c(Cl)ncnc32)CC1,GI50,MOLT-4 leukemia,2.4 µM
same,TGI,MOLT-4 leukemia,9.2 µM
same,GI50,SF-539 CNS,12.6 µM
same,TGI,SF-539 CNS,28.7 µM
same,GI50,NCI-H460 lung,2.66 µM
same,TGI,NCI-H460 lung,6.73 µM
same,GI50,HCT-116 colon,3.16 µM
same,TGI,HCT-116 colon,13.3 µM
same,GI50,IGROV1 ovarian,1.78 µM
same,TGI,IGROV1 ovarian,3.54 µM
same,GI50,LOX IMVI melanoma,1.68 µM
same,TGI,LOX IMVI melanoma,3.1 µM
same,GI50,PC-3 prostate,3.53 µM
same,TGI,PC-3 prostate,12 µM
same,GI50,EKVX NSCLC,11.6 µM
same,TGI,EKVX NSCLC,40.4 µM
same,GI50,BT-549 breast,13 µM
same,TGI,BT-549 breast,26.8 µM
same,GI50,RPMI-8226 leukemia,23.7 µM
same,TGI,RPMI-8226 leukemia,77.4 µM
same,GI50,DU-145 prostate,12.5 µM
same,TGI,DU-145 prostate,32.8 µM
same,GI50,SN12C renal,7.75 µM
same,TGI,SN12C renal,23.1 µM
same,GI50,MDA-MB-435,5.5 µM
same,TGI,MDA-MB-435,19.5 µM
same,GI50,MDA-MB-231 breast,1.76 µM
same,TGI,MDA-MB-231 breast,4.28 µM
same,GI50,COLO 205 colon,18.4 µM
same,TGI,COLO 205 colon,46.2 µM
same,GI50,NCI-H226 lung,17.4 µM
same,TGI,NCI-H226 lung,72.8 µM
same,GI50,MALME-3M melanoma,14.5 µM
same,TGI,MALME-3M melanoma,32 µM
same,GI50,HS 578T breast,14.2 µM
same,TGI,HS 578T breast,59.8 µM
same,GI50,A498 renal,21.3 µM
same,TGI,A498 renal,57.4 µM
same,GI50,MDA-MB-468 breast,2.19 µM
same,TGI,MDA-MB-468 breast,4.94 µM
same,GI50,SK-OV-3 ovarian,16.2 µM
same,TGI,SK-OV-3 ovarian,43.2 µM
same,GI50,NCI-H522 lung,1.7 µM
same,TGI,NCI-H522 lung,3.52 µM
same,GI50,OVCAR-3 ovarian,14.3 µM
same,TGI,OVCAR-3 ovarian,34.4 µM
same,GI50,MCF7 breast,10 µM
same,TGI,MCF7 breast,42.6 µM
same,GI50,SNB-19 CNS,13.2 µM
same,TGI,SNB-19 CNS,26.8 µM
same,GI50,ACHN renal,12.3 µM
same,TGI,ACHN renal,> 100 µM
same,GI50,RXF 393 renal,11 µM
same,TGI,RXF 393 renal,28.1 µM
same,GI50,SK-MEL-5 melanoma,3.73 µM
same,TGI,SK-MEL-5 melanoma,13.7 µM
same,GI50,786-0 renal,22.3 µM
same,TGI,786-0 renal,60.7 µM
same,GI50,HCC-2998 colon,1.83 µM
same,TGI,HCC-2998 colon,3.28 µM
same,GI50,SF-295 CNS,10.3 µM
same,TGI,SF-295 CNS,25.9 µM
same,GI50,OVCAR-4 ovarian,26.8 µM
same,TGI,OVCAR-4 ovarian,> 100 µM
same,GI50,SK-MEL-2 melanoma,15.7 µM
same,TGI,SK-MEL-2 melanoma,30.9 µM
same,GI50,NCI/ADR-RES ovarian,19 µM
same,TGI,NCI/ADR-RES ovarian,46.6 µM
same,GI50,HL-60(TB) leukemia,2.75 µM
same,TGI,HL-60(TB) leukemia,8.18 µM
same,GI50,K-562 leukemia,2.8 µM
same,TGI,K-562 leukemia,> 100 µM
same,GI50,HCT-15 colon,2.55 µM
same,TGI,HCT-15 colon,7.37 µM
same,GI50,OVCAR-5 ovarian,> 100 µM
same,TGI,OVCAR-5 ovarian,> 100 µM
same,GI50,UO-31 renal,1.63 µM
same,TGI,UO-31 renal,3.27 µM
same,GI50,CCRF-CEM leukemia,4.37 µM
same,TGI,CCRF-CEM leukemia,> 100 µM
same,GI50,UACC-62 melanoma,4.69 µM
same,TGI,UACC-62 melanoma,18.1 µM
same,GI50,M14 melanoma,6.19 µM
same,TGI,M14 melanoma,23.1 µM
same,GI50,SK-MEL-28 melanoma,8.13 µM
same,TGI,SK-MEL-28 melanoma,37.4 µM
same,GI50,SNB-75 CNS,3.11 µM
same,TGI,SNB-75 CNS,14.2 µM
same,GI50,NCI-H23 lung,5.84 µM
same,TGI,NCI-H23 lung,26.6 µM
same,GI50,TK-10 renal,35.5 µM
same,TGI,TK-10 renal,> 100 µM
same,GI50,HOP-92 NSCLC,12.9 µM
same,TGI,HOP-92 NSCLC,29.2 µM
same,GI50,T-47D breast,17.3 µM
same,TGI,T-47D breast,63.7 µM
same,GI50,U251 CNS,2.4 µM
same,TGI,U251 CNS,6.43 µM
same,GI50,A549 NSCLC,52.9 µM
same,TGI,A549 NSCLC,> 100 µM
same,GI50,CAKI-1 renal,13.6 µM
same,TGI,CAKI-1 renal,30.6 µM
same,GI50,OVCAR-8 ovarian,3.2 µM
same,TGI,OVCAR-8 ovarian,11.7 µM
same,GI50,SF-268 CNS,5.2 µM
same,TGI,SF-268 CNS,21.4 µM
same,GI50,HT29 colon,5.46 µM
same,TGI,HT29 colon,36.6 µM
same,GI50,SW-620 colon,4.86 µM
same,TGI,SW-620 colon,19.5 µM
same,GI50,UACC-257 melanoma,4.09 µM
same,TGI,UACC-257 melanoma,16.9 µM
same,GI50,HOP-62 NSCLC,13.8 µM
same,TGI,HOP-62 NSCLC,32.5 µM
same,GI50,KM12 colon,17.9 µM
same,TGI,KM12 colon,39.9 µM
